Laboratory results published in patent US20260071117A1, “FUNABLE FLUORESCENT COMPOUNDS AND USES THEREOF” (Arizona Board of Regents on Behalf of the University of …, priority 2021, published 2026).
Like-named read-outs stand apart in the source and are kept apart here.

What was measured:
[1] = Absorbance and fluorescence measurements (excitation maximum, emission maximum, quantum yield vs coumarin 151); type: physicochemical; parameters: key to Quantum Yield: fraction relative to coumarin 151 in ethanol standard; conditions: measurements run with methanol; for λex: absorbance/excitation maximum; for Quantum Yield: coumarin 151 in ethanol as standard; for Quantum Yield / λem: 2.5 mm slit width; for λem: emission maximum
[2] = previously published amine, comparison in Example I; cited from earlier work

Molecule | λex [1] [nm] | Quantum Yield [1] | λem [1] [nm] | Quantum Yield [2] | emission maxima [2] [nm] | excitation maxima [2] [nm]
COc1cccc(-c2nc3c(nc4ccccn43)c3cc(OC)ccc23)c1 [Compound 16a, 2-methoxy-5-(3-methoxyphenyl)pyrido[2′,1′:2,3]imidazo[4,5-c]isoquinoline] | 361 | 0.05 | 417 | 0.02 | 505 | 292
(E)-2,3,4-trimethoxy-9-methyl-5-(3,4,5-trimethoxyphenyl)-10-(3,4,5-trimethoxystyryl)-[1,2,4]triazino[3′, 2′: 2,3]imidazo[4,5-c]isoquinolines [Compound 80] | 499 | 0.25 | 604 |  |  | 
(E)-5-(3,5-dimethoxyphenyl)-10-(3,5-dimethoxystyryl)-2,4-dimethoxy-9-methyl-[1,2,4]triazino[3′, 2′: 2,3]imidazo[4,5-c]isoquinolines [Compound 79] | 498 | 0.18 | 608 |  |  | 
